Columns and labels:
[1] = system: CXCR3+Th1 cells; conditions: spleen; DON in the diet
[2] = system: CD25+ FoxP3+ Treg cells; conditions: spleen of vaccinated mice; DON in the diet
[3] = system: IL-4, IL-6, IL-13, TNF-α and MIP-2; conditions: re-stimulated splenocytes of vaccinated mice; dietary DON
[4] = system: T1ST2+Th2 cells; conditions: spleen; DON in the diet
[5] = system: vaccine-specific immunoglobulin; conditions: vaccinated mice; DON in the diet

SMILES: CC1=C[C@H]2O[C@@H]3[C@H](O)C[C@](C)([C@@]2(CO)[C@H](O)C1=O)[C@]31CO1 [DON, deoxynivalenol]
- effect on CXCR3+Th1 cells [1]: No significant effect
- percentage of CD25+ FoxP3+ Treg cells [2]: not significantly affected
- concentrations of IL-4, IL-6, IL-13, TNF-α and MIP-2 in cell supernatants [3]: No significant effect
- effect on T1ST2+Th2 cells [4]: No significant effect
- vaccine-specific immunoglobulin production [5]: reduced
